Patent US20110136163A1, “Method of Toxicological Assessment” (priority 2008, published 2011)
“Also recorded” adds a separate entry of the source. *1 amine or outer side, *2 acyl side, *3 side chain or, on linkers, in order; H or OH if unused. Where a SMILES comes first, the peptide text is derived from it. Bridges are numbered along the chain shown (N, C = ends). [ ]: non-standard residue; d: D form. Adda = CO[C@@H](Cc1ccccc1)[C@@H](C)/C=C(C)/C=C/[C@H](N[*:1])[C@H](C)C(=O)[*:2]; dAsp(3S-Me) = C[C@H](C(=O)[*:3])[C@@H](N[*:1])C(=O)[*:2]; d(γGlu) = O=C(O)[C@@H](CCC(=O)[*:2])N[*:1]; NMeDha = C=C(NC)C(=O)O

Key:
HepG2 cells [1] = experiment: O2 consumption toxicity assay in HepG2 cells, with and without transport reagent; type: cell-based
Jurkat cells [2] = experiment: ATP content in Jurkat cells, with and without transport reagent; type: cell-based
From the text: A number of other transport reagents, toxicants, cell models and parameters of cellular function were examined, using the general assay format described in Example 1.

cells = type: cell-based
[3] = system: isolated rat liver mitochondria; type: biochemical
Primary rat hepatocytes = type: cell-based
Jurkat cells [4] = experiment: O2 consumption toxicity assay in Jurkat cells, with and without transport reagent; type: cell-based
HepG2 cells [5] = experiment: Western blot of protein phosphorylation (anti-phospho-serine) in HepG2 cells; type: cell-based
Experimental: FIG. 2. Western blot analysis of HepG2 cells treated with MCLR in the presence of EndoPorter for 24 h, primary antibodies used were anti-phospho-serine. Blot analysis show dependence of protein phosphorylation on MCLR concentration.
A number of other markers of cellular function were also investigated for their alterations in response to MCLR treatment of cells in the presence of transport reagent. […] Metabolic parameters such as intracellular levels of ATP and NAD(P)H were seen unchanged.

Compound | Concentration above which significant effects on O2 consumption were seen (HepG2 cells [1]) | Peak of bell-shape dose response of O2 consumption (HepG2 cells [1]) | ATP content, observed effect (Jurkat cells [2]) | Intracellular level of ATP (cells) | Intracellular level of NAD(P)H (cells) | Effect on O2 consumption of isolated mitochondria [3] | Concentration at which parameters of cellular function were affected (Primary rat hepatocytes) | O2 consumption, observed effect (Primary rat hepatocytes) | IC50 (Primary rat hepatocytes; read-out: O2 consumption, IC50) | Concentration above which significant effects on O2 consumption were seen (Jurkat cells [4]) | O2 consumption / toxicity, observed effect (Jurkat cells [4]) | O2 consumption, observed effect (Jurkat cells [4]) | Protein phosphorylation/dephosphorylation in Western blots (HepG2 cells [5])
C=C1C(=O)N[C@H](C)C(=O)N[C@@H](CC(C)C)C(=O)N[C@@H](C(=O)O)[C@H](C)C(=O)N[C@@H](CCCNC(=N)N)C(=O)N[C@@H](/C=C/C(C)=C/[C@H](C)[C@H](Cc2ccccc2)OC)[C@H](C)C(=O)N[C@@H](C(=O)O)CCC(=O)N1C [MCLR, Microcystin-LR] (R[Adda][d(γGlu)][NMeDha][dA]L[dAsp(3S-Me)]-OH; lactam N-7) | above 0.1 nM | around 0.5 nM | No effect at 10 μM; also recorded: Dose dependent decrease | unchanged | unchanged | uncoupling effect | ≥ 0.5 nM | dose-dependent decreases in oxygen consumption | 2.74 nM | above 0.1 nM | strong toxicity; also recorded: respiration decreased | no detectable toxicity; also recorded: No effect at 10 μM | altered protein phosphorylation/dephosphorylation
Aflatoxin B1 | – | – | – | – | – | – | – | – | – | – | increased toxicity | – | –
